From ChEMBL document CHEMBL1201862, “PubChem BioAssay data set” (2004)
Several values for one entry are separate records, joined by “and”; a condition that tells them apart may be missing. Equal entries are not always repeated. Activity calls are given as the source filed them.

Legend:
Hexokinase HKDC1 = target: T1, Hexokinase HKDC1 (Homo sapiens, UniProt Q2TB90); test: inhibition of HKDC1 glucose phosphorylation – biochemical, W721R variant, dose response (AID 504729); assay type: functional
T1 sequence (Q2TB90 whole entry): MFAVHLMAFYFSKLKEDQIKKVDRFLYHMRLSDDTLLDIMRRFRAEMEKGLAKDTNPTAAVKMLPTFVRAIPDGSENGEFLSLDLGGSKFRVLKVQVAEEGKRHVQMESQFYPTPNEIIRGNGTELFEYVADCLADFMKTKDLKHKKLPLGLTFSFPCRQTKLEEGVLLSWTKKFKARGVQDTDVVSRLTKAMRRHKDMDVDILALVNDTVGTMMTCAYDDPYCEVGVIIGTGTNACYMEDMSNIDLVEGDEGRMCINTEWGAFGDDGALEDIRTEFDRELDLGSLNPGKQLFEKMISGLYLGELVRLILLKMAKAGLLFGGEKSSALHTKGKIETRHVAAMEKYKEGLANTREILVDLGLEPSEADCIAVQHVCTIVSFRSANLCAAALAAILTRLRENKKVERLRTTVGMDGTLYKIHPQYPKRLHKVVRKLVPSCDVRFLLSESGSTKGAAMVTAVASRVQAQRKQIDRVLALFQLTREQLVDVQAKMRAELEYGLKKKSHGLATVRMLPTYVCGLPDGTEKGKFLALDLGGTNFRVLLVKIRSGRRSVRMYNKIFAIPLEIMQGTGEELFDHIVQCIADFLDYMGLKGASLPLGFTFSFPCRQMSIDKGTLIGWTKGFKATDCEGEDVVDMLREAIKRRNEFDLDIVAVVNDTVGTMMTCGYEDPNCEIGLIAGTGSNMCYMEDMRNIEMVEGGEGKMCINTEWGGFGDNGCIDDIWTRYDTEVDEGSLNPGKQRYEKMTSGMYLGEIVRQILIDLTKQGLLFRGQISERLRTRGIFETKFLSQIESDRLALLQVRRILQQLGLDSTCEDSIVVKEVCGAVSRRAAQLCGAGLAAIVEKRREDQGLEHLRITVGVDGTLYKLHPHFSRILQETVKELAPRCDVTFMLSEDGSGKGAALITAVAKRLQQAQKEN

Streptokinase A = target: T2, Streptokinase A (Streptococcus pyogenes serotype M1, UniProt P10520); test: viability-normalized secreted streptokinase activity reduction – plasminogen activation absorbance, OD405, dose response (AID 1914); assay type: functional, Streptococcus pyogenes M1 GAS;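 further: secreted streptokinase activity via plasminogen activation per viability signal from cell pellet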
T2 sequence (P10520 whole entry): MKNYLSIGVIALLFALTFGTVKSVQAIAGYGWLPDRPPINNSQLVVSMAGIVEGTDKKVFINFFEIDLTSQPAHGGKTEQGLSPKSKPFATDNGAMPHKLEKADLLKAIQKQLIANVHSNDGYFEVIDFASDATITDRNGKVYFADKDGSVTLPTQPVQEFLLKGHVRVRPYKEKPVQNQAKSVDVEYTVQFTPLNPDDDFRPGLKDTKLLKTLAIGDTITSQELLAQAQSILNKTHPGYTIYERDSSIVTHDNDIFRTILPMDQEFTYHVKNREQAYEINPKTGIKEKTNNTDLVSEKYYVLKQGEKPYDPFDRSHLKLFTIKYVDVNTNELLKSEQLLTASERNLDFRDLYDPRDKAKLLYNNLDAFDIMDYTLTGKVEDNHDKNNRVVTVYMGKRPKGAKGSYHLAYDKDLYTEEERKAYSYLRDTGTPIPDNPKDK

Genome polyprotein = Genome polyprotein (dengue virus type 2, UniProt P29990); test: flavivirus cap methylation enzyme inhibition – biochemical, confirmation dose response, primary screen (AID 588689); assay type: functional
[1] = test system: Streptococcus sp. 'group A'; test: Streptococcus pyogenes SK(-)GAS viability under kanamycin – luminescence, BacTiterGlo, confirmation, counter-screen for streptokinase expression inhibitor project, dose response (AID 1900); assay type: functional, organism-based
Vero [2] = test: viability of Vero cells under compound – cytotoxicity control for flavivirus capping enzyme inhibitors (AID 588742); assay type: functional; details: Chlorocebus sabaeus
Streptococcus = test: GAS UMAA2166 growth inhibition – luminescence, BacTiterGlo, counter-screen for streptokinase expression inhibitor project, dose response (AID 1915); assay type: functional, organism-based;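 further: potency for reduction of bacterial viability or growth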
Vero [3] = test: cells; assay type: functional; details: Chlorocebus sabaeus
[4] = target: Benomyl/methotrexate resistance protein (Candida albicans, UniProt P28873); test: Candida albicans Mdr1 pump inhibition curves – singleplex, Cherry Pick1 hits, dose response (AID 588608); assay type: functional
[5] = cAMP pathway inhibition in counterscreen cell line – TR-FRET cAMP detection, counter-screen for MC4R biased antagonist project, dose response (AID 602305); assay type: functional, cell-based;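 further: U2OS cells stimulated with forskolin near its EC80 as the cAMP inducer; potency is for inhibition of forskolin-stimulated cAMP signaling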
Melanocortin receptor 4 = Melanocortin receptor 4 (Homo sapiens, UniProt P32245); test: inhibitors of MC4R cAMP signaling – cell-based, TR-FRET, biased antagonists, dose response (AID 602298); assay type: functional;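 further: antagonist potency against agonist-stimulated cAMP production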
[6] = target: Protein disulfide-isomerase (Homo sapiens, UniProt P07237); test: inhibition of PDI-driven insulin aggregation – biochemical, turbidity, absorbance, cherry-picked samples, dose response (AID 602350); assay type: functional
[7] = target: T3, Sentrin-specific protease 6 (Homo sapiens, UniProt Q9GZR1); test: SAR Analysis of small molecule inhibitors of Sentrin-specific protease 6 (SENP6) using a Luminescent assay. [Related pubchem assays (depositor defined):AID2582, AID2599]; assay type: functional
T3 sequence (Q9GZR1 whole entry): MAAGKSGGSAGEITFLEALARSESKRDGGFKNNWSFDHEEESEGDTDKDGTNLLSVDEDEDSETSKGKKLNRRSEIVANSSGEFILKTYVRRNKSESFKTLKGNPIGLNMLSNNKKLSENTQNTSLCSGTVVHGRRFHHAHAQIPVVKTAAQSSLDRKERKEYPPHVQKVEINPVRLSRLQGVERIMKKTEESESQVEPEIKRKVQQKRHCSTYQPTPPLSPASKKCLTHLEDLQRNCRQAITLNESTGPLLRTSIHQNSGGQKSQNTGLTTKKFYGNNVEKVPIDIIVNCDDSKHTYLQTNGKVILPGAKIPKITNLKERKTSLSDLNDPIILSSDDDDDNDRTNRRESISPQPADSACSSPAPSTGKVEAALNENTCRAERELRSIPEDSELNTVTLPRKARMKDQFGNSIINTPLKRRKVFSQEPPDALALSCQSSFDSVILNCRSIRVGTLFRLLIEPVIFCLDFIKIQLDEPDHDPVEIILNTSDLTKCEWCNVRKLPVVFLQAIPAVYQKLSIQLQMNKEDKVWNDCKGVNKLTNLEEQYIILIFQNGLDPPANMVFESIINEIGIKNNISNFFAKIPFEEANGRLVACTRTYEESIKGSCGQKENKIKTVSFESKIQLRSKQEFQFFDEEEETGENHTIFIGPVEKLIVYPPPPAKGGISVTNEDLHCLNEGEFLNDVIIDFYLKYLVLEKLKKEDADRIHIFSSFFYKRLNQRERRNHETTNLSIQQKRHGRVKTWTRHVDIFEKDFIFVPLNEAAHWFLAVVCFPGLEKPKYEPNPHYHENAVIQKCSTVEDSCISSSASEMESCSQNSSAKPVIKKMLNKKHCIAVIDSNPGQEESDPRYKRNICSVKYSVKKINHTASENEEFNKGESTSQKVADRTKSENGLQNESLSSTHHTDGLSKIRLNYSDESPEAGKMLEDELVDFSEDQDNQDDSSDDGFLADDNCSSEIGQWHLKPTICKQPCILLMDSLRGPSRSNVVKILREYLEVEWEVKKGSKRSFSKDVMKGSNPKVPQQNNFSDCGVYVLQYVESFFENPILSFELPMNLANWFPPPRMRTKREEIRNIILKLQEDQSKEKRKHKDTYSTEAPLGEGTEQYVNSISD

[8] = target: T4, Sentrin-specific protease 7 (Homo sapiens, UniProt Q9BQF6); test: inhibition of human SENP7 cleavage activity – biochemical, luminescence, SAR follow-up (AID 504497); assay type: functional
T4 sequence (Q9BQF6 whole entry): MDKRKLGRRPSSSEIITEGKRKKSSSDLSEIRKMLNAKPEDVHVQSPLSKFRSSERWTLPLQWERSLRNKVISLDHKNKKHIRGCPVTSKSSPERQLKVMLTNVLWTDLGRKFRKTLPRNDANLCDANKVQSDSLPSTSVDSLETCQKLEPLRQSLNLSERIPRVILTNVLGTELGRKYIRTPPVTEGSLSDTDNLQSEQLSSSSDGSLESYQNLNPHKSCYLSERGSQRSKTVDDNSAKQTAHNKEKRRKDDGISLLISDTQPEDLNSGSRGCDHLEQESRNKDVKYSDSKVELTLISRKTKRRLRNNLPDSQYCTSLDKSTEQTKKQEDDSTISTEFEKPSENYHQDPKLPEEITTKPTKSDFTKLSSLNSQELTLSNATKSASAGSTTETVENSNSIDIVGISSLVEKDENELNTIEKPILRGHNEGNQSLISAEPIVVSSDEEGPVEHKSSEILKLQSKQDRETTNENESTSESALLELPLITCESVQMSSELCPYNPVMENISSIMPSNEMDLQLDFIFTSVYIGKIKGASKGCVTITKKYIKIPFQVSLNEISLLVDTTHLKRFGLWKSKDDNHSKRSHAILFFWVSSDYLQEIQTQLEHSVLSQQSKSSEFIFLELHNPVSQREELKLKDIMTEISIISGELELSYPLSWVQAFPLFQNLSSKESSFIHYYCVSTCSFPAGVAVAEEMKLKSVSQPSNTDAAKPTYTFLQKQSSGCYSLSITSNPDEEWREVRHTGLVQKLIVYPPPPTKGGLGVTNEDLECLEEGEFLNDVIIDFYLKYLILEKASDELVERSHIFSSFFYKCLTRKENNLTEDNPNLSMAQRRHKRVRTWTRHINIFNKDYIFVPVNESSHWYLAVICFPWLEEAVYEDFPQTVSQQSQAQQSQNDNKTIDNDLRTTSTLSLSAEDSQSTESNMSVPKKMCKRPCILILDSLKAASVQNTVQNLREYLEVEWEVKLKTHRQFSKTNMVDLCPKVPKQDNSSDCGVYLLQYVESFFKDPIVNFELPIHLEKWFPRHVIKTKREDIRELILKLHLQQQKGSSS

Caspase-3 [9] = target: T5, Caspase-3 (Homo sapiens, UniProt P42574); test: inhibition of recombinant caspase-3 activity – biochemical, luminescence, set 2, selectivity assay for SENP protease inhibitor project, SAR follow-up (AID 588599); assay type: functional
T5 sequence (P42574 whole entry): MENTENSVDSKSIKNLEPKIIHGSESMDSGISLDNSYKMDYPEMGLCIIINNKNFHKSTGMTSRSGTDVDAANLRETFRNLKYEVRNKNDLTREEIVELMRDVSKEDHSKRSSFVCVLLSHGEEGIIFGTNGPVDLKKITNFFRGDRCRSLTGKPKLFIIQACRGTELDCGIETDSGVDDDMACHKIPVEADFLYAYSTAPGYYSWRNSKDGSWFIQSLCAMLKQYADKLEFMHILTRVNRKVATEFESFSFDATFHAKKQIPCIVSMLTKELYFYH

[10] = target: T3, Sentrin-specific protease 6; test: inhibition of human SENP6 catalytic domain – biochemical, luminescence, set 2, SAR follow-up (AID 588598); assay type: functional
[11] = target: T6, Sentrin-specific protease 8 (Homo sapiens, UniProt Q96LD8); test: inhibition of human SENP8 cleavage activity – biochemical, luminescence, SAR follow-up (AID 504501); assay type: functional
T6 sequence (Q96LD8 whole entry): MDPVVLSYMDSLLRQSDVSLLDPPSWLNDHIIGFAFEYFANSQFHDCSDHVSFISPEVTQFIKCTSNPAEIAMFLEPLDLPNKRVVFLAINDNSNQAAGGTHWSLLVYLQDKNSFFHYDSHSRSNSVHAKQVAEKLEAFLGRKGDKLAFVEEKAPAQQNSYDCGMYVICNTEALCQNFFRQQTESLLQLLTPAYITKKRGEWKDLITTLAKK

[12] = target: T4, Sentrin-specific protease 7; test: inhibition of human SENP7 cleavage activity – biochemical, luminescence, set 2, SAR follow-up (AID 588600); assay type: functional
[13] = target: T6, Sentrin-specific protease 8; test: inhibition of sentrin protease 8 – biochemical, luminescence, set 2, SAR follow-up (AID 588601); assay type: functional
Caspase-3 [14] = target: T5, Caspase-3; test: SAR Analysis of small molecule inhibitors of Sentrin-specific proteases (SENPs) using a Caspase-3 Selectivity assay. [Related pubchem assays (depositor defined):AID2540, AID2599, AID434973, AID489001]; assay type: functional
[15] = target: Apoptotic protease-activating factor 1 (Homo sapiens, UniProt O14727); test: SAR analysis of small molecule Activators of Apaf-1 in a Fluorescent assay.; assay type: functional; details: read-out: EC50_Mean;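 further: caspase-3 cleavage of fluorogenic Rh110 DEVD substrate downstream of apoptosome activation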
Chain of Apoptotic protease-activating factor 1 (O14727 whole entry): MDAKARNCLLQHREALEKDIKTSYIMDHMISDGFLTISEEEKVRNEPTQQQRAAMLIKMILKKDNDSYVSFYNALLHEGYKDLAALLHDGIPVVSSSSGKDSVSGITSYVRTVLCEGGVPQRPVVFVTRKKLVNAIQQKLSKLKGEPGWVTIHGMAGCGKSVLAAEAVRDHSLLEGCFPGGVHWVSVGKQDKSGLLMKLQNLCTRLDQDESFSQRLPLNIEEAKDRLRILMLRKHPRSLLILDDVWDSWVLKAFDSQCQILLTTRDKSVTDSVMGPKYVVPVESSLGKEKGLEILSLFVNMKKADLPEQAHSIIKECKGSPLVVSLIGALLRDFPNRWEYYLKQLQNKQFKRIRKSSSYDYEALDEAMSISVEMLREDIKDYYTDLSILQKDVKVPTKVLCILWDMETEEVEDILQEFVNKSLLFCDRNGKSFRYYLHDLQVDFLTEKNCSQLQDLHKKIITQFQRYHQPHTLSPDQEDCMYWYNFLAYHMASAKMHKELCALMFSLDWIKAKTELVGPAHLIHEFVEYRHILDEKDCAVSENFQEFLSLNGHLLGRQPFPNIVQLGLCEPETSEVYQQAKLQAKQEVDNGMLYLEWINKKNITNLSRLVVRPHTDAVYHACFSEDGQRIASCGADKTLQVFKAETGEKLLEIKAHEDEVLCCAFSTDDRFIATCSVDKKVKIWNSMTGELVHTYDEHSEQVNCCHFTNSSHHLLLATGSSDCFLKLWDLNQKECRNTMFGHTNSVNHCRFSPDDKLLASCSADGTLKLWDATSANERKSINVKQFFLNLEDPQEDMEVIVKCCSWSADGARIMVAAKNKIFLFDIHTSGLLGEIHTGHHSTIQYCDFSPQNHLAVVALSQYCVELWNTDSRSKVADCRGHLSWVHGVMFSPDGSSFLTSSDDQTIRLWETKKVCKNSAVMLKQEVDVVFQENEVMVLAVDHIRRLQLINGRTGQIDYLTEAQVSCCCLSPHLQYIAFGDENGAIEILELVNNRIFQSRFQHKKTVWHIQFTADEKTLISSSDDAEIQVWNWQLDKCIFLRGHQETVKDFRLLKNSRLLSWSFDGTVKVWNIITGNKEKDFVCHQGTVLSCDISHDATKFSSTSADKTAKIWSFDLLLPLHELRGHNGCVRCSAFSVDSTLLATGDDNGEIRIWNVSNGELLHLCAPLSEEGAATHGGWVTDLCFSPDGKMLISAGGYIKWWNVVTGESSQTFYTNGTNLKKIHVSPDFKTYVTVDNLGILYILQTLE

Chain of Protein disulfide-isomerase (P07237 whole entry): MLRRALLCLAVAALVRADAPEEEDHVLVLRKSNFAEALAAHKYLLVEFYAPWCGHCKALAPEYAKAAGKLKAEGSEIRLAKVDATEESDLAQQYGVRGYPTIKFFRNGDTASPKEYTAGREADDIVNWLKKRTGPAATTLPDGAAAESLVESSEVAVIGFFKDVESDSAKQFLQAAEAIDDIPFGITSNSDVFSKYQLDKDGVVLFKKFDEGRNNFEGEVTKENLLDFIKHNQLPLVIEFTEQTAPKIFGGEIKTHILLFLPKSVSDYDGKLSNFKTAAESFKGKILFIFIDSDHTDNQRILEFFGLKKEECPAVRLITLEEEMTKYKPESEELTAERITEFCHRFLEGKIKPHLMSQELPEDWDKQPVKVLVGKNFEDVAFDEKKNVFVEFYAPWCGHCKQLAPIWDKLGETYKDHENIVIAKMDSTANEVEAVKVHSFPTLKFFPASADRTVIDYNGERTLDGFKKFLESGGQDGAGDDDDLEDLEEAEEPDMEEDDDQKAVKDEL
Chain of Benomyl/methotrexate resistance protein (P28873 whole entry): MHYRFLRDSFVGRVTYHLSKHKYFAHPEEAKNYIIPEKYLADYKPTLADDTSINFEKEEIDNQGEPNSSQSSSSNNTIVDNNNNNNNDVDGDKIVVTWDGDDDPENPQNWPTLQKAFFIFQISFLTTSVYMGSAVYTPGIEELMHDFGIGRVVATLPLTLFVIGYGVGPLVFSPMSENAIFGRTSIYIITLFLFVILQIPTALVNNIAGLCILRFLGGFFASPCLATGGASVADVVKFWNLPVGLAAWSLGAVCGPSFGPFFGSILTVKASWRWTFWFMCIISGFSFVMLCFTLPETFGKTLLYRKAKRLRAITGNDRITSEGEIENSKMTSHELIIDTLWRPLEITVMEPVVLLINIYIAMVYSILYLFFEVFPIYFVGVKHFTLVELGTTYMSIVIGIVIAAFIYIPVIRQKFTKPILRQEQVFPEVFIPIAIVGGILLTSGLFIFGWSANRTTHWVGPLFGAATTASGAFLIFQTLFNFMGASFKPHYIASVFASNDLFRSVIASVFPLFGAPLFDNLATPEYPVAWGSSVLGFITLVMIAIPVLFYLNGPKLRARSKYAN
Chain of Melanocortin receptor 4 (P32245 whole entry): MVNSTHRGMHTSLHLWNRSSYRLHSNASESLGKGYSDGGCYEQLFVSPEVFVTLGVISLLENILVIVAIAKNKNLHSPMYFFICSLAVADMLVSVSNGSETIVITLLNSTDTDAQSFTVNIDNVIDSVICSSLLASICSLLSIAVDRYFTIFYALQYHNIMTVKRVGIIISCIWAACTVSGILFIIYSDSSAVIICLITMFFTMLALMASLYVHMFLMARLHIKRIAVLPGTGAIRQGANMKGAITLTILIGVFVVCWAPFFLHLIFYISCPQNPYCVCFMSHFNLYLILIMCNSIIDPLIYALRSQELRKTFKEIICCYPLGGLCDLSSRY
Chain of Genome polyprotein (P29990 2492-3391 limits assumed): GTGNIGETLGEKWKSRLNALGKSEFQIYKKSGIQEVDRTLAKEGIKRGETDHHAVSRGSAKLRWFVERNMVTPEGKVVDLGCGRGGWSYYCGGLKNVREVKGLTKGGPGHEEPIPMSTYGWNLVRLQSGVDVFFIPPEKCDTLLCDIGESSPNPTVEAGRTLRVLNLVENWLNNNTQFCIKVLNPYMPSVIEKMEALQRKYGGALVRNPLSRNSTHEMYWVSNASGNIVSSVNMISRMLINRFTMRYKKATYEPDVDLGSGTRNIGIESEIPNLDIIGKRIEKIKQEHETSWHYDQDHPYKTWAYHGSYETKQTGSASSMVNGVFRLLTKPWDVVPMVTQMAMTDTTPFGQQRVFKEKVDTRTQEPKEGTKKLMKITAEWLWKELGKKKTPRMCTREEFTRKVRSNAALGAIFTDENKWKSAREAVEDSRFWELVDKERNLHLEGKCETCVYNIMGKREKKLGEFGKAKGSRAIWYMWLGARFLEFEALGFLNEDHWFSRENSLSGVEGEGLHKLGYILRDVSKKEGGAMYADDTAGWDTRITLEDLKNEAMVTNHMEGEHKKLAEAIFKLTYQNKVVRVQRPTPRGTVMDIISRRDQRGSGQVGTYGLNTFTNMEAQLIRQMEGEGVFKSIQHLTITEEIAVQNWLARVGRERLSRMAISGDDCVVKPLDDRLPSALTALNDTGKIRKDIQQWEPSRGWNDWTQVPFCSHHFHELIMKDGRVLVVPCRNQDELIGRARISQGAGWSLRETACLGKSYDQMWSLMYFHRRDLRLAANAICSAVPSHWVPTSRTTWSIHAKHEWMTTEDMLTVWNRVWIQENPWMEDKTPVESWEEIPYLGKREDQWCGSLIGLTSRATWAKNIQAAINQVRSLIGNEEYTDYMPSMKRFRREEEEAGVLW

## COc1ccc(C(=O)c2coc3c2C(=O)C(=O)c2ccccc2-3)cc1
Hexokinase HKDC1
  IC50: 11.3 µM (active)
Streptokinase A
  EC50: > 150 µM (not active)
Genome polyprotein
  IC50: 34.5 µM (active)
[1]
  EC50: 1.84 µM (active)
Vero [2]
  CC50: > 40 µM (active)
Streptococcus
  EC50: 14.7 µM (active)
Vero [3]
  CC50: > 25 µM (active)

## COc1cccc(C2CC(c3ccccc3)=NN2S(=O)(=O)c2ccc(C)cc2)c1OC (stereo not given)
[4]
  EC50: 9.58 µM (active)

## Cc1[nH]c(C)c(C(=O)/C=C/c2ccc([N+](=O)[O-])cc2)c1C
[5]
  IC50: > 64.6 µM (inactive)
Melanocortin receptor 4
  IC50: > 64.6 µM (inactive)

## C[C@@H]1CN([C@@H](C)CO)C(=O)c2cccc(NS(C)(=O)=O)c2O[C@H]1CN(C)Cc1ccc(Oc2ccccc2)cc1
[6]
  AC50: 19.5 µM (active) and 7.04 µM (active)

## CCN(CC)c1ccc(/C=C/c2noc(-c3ccccc3O)n2)cc1
[7]
  IC50: 35 µM (active)
[8]
  IC50: 14 µM (active)
Caspase-3 [9]
  IC50: > 99 µM (inactive)
[10]
  IC50: 30.7 µM (active)
[11]
  IC50: 43 µM (active)
[12]
  IC50: > 99 µM (inactive)
[13]
  IC50: > 99 µM (inactive)
Caspase-3 [14]
  IC50: 48 µM (active)

## CCOc1cc(/C=C(/C#N)c2nc(-c3ccc(C)cc3)no2)cc(Cl)c1O
Caspase-3 [9]
  IC50: > 99 µM (inactive)
[10]
  IC50: > 99 µM (inactive)
[12]
  IC50: > 99 µM (inactive)
[13]
  IC50: > 99 µM (inactive)

## C[C@H](CO)N1C[C@H](C)[C@H](CN(C)Cc2ccccc2)Oc2ccc(NC(=O)Nc3ccccc3)cc2CC1=O
[6]
  AC50: 19.5 µM (active)

## Cc1cc(C)n(C(C)CC(=O)Nc2cccnc2)n1 (stereo not given)
[15]
  EC50: > 100 µM (inactive)
